# Patent US9872858B2, “Treatment of degenerations and light-induced damage to the retina” (BIOCODEX, priority 2014, dated 2018)
# Like-named read-outs stand apart in the source and are kept apart here.
# What was measured:
# [1] = system: blue light-induced retinal degenerations or damages in rats; test: Thickness of the outer nuclear layer (histology, AUC) after blue light-induced retinal degeneration; format: in vivo, Sprague-Dawley albino male rats
# Experimental: The inventors have studied the protective effect of etifoxine in respect of the blue light-induced retinal degenerations or damages in rats. This animal model is particularly representative, in addition to light-induced retinal damage, of age-related macular degeneration (AMD) and retinitis pigmentosa (see e.g Feng et al. (2012) International Journal of Ophthalmology 5:151-157).
# (§1) Induction was performed by exposure during 6 hours to a blue fluorescent light of 400 nm-540 nm wavelength in individual cages. The rats were kept in the dark for 36 hours prior to the induction and 24 hours after the induction, before returning to normal lighting conditions.
# After ERG (day 14), the animals were euthanized with an overdose of pentobarbital, according to European recommendations, both eyes were enucleated, fixed with Bouin Hollande solution and then included in paraffin. Sections of 5 to 7 μm of thickness were made along the vertical meridian then stained using Masson's trichrome. The vertical meridian includes the optic nerve. […] The area under the curve (AUC) was then calculated for each retina.
# A one-factor ANOVA test was applied to the average AUCs of the thickness of the outer nuclear layer. The effect of the products was determined using a Turkey's multiple comparison test; each treated group was compared to vehicle group. Differences were considered significant for p values less than 0.05.
# To determine if the treatment allows to preserve the structure of photoreceptors, the thickness of the outer nuclear layer was evaluated 14 days other exposure to blue light. The area under the curve (AUC) of the thickness of the outer nuclear layer was calculated for each eye and both AUCs were averaged for each rat.
# [2] = system: blue light-induced retinal degenerations or damages in rats; test: Scotopic electroretinogram (amplitude of wave a) after blue light-induced retinal degeneration; format: in vivo, Sprague-Dawley albino male rats
# Experimental: This animal model is particularly representative, in addition to light-induced retinal damage, of age-related macular degeneration (AMD) and retinitis pigmentosa (see e.g Feng et al. (2012) International Journal of Ophthalmology 5:151-157).
# 72 Sprague-Dawley albino male rats obtained from Janvier were used for the study. When received, the rats were approximately 7 weeks old and weighed 180-200 g,
# as §1
# A scotopic electroretinogram (ERG) was performed by using the electrophysiological RETI-animal® (Roland Consult) system before the first administration (base) then on days 7 and 14 on both eyes of animals accustomed to the darkness. The animals were anesthetized with an intramuscular injection of a mixture of ketamine/xylazine. 15 minutes before the measurement, 1 drop of Mydriatictum® (0.5% tropicamide) was instilled to induce dilatation of the pupil. The amplitudes of wave a and wave b were measured for each eye and expressed as a percentage of the base amplitudes.
# The ERG parameters are: • Gansfeld Q450C • Color: maximum white • Maximum intensity: 2.6 cd.s/m^2 (0 dB); duration: 0.24 ms; number of flashes: 1 • Filter: 50 Hz • Impedance threshold: 90 kΩ
# A two-factor ANOVA test was applied to the average amplitudes of the wave a of both eyes for each measurement point. The effect of the products was determined using the Turkey's multiple comparison test; each group was compared to other groups. Differences were considered significant for p values less than 0.05.
# Electroretinograms (ERG) allow to measure the amplitude of wave a, which results from the photo-activated hyperpolarization of photoreceptors. Thus, a reduction of the amplitude of wave a is an indicator of a retinal damage or degeneration associated with exposure to blue light.
# [3] = Animals behavior and body weight; format: in vivo, Sprague-Dawley albino male rats; conditions: etifoxine 12.5-50 mg/kg i.p. once a day D-7 to D0
# From the text: The rats were kept under observation for 3 weeks after their arrival for acclimatization. Meanwhile the animals were observed daily for verifying the absence of a disease.
# II.1. Animals Behavior and Body Weight
# [4] = system: light-induced degeneration of the retina in rats; conditions: intraperitoneal injection (Ranchon et al. 2001); cited from earlier work
# [5] = system: patients suffering from neovascular (exudative) AMD; conditions: cited from earlier work
compound,measurement,setting,value
"CCNC1=Nc2ccc(Cl)cc2C(C)(c2ccccc2)O1.Cl (centres unmarked) [EFX, 6-chloro-2-ethylamino-4-methyl-4-phenyl-4H-[3,1]benzoxazine hydrochloride]","Thickness of the outer nuclear layer (AUC, mean of both eyes ± standard deviation)","[1]; EFX 12.5 mg/kg i.p. once a day D-7 to D0, 14 days after induction, p = 0.04 vs vehicle group",170 ± 72 (p = 0.04 comparing to vehicle group) μm × mm
same,"Thickness of the outer nuclear layer (AUC, mean of both eyes ± standard deviation)","[1]; EFX 25 mg/kg i.p. once a day D-7 to D0, 14 days after induction, p = 0.0002 vs vehicle group",200 ± 73 (p = 0.0002 comparing to vehicle group) μm × mm
same,"Thickness of the outer nuclear layer (AUC, mean of both eyes ± standard deviation)","[1]; EFX 50 mg/kg i.p. once a day D-7 to D0, 14 days after induction, p = 0.035 vs vehicle group",172 ± 61 (p = 0.035 comparing to vehicle group) μm × mm
same,"Protection of the outer nuclear layer from damages or degenerations induced by blue light, compared to the vehicle","[1]; regardless of the dose (12.5, 25, 50 mg/kg), 14 days after induction",protects significantly
same,Protection of amplitude of wave a compared to the vehicle group,"[2]; 12.5, 25 and 50 mg/kg, day 7 p<0.0001 all doses, day 14 p=0,016 for 12.5 mg/kg, p<0.0001 for 25 and 50 mg/kg",significant dose-dependent protection
same,"Amplitude of wave a (mean ± standard deviation), Day 7","[2]; EFX 12.5 mg/kg i.p. once a day D-7 to D0, 7 days after induction",136 ± 89 μV
same,"Amplitude of wave a (mean ± standard deviation), Day 14","[2]; EFX 12.5 mg/kg i.p. once a day D-7 to D0, 14 days after induction",134 ± 135 μV
same,"Amplitude of wave a (mean ± standard deviation), Day 7","[2]; EFX 25 mg/kg i.p. once a day D-7 to D0, 7 days after induction",210 ± 116 μV
same,"Amplitude of wave a (mean ± standard deviation), Day 7","[2]; EFX 50 mg/kg i.p. once a day D-7 to D0, 7 days after induction",260 ± 87 μV
same,Clinical signs after administration,[3],No unexpected clinical signs
"CC(C)(C)[N+]([O-])=Cc1ccccc1 [PBN, Phenyl-N-tert-butylnitrone]","Thickness of the outer nuclear layer (AUC, mean of both eyes ± standard deviation)","[1]; PBN 50 mg/kg i.p. at D0 around induction, 14 days after induction, p < 0.0001 vs NaCl 0.9% group",247 ± 44 (p < 0.0001 comparing to NaCl 0.9% group) μm × mm
same,Protection of the outer nuclear layer from damages or degenerations induced by blue light,"[1]; PBN 50 mg/kg, positive control, in contrast to 0.9% NaCl",protects the outer nuclear layer
same,Action in light-induced degeneration of the retina,[4],protective action
same,"Amplitude of wave a (mean ± standard deviation), Day 7","[2]; PBN 50 mg/kg i.p. at D0, 0.5 h before, 2 h and 4 h during and just after induction, 7 days after induction",334 ± 137 μV
same,"Average relative amplitude of wave a, Day 7","[2]; PBN 50 mg/kg i.p. at D0 around induction, 7 days after induction, percentage of base amplitude",71 ± 29%
same,"Amplitude of wave a (mean ± standard deviation), Day 14","[2]; PBN 50 mg/kg i.p. at D0 around induction, 14 days after induction",301 ± 187 μV
same,"Average relative amplitude of wave a, Day 14","[2]; PBN 50 mg/kg i.p. at D0 around induction, 14 days after induction, percentage of base amplitude",62 ± 38%
same,Amplitudes of wave a compared to the NaCl 0.9% group,"[2]; PBN 50 mg/kg, days 7 and 14, p<0.0001",significantly (p<0.0001) higher
ranibizumab: a Fab fragment of an anti-VEGF-A monoclonal antibody,Visual acuity improvement,[5]; 0.3 mg monthly intravitreal injections,+8.1 letters
same,Visual acuity improvement,[5]; 0.5 mg monthly intravitreal injections,+10.7 letters
